Reference: publication PMC6409085, “Three odorant-binding proteins are involved in the behavioral response of Sogatella furcifera to rice plant volatiles” (PeerJ, 2019)
Where “and” joins values, the source holds several entries; their conditions need not be identical. Equal values may be shown once.

Legend:
Test in all cases: biochemical
Type in all cases: binding
SfurOBP3 = SfurOBP3 (Sogatella furcifera, UniProt V5T818); conditions: OBP3, three replicate columns
Method: (§1) Thirty-six rice odorants ([He et al., 2014]; [Wang et al., 2017]) and 1-N-phenyl-naphthylamine (1-NPN) were purchased from Sigma-Aldrich (St Louis, MO, USA). These odorants and 1-NPN were dissolved in high-performance liquid chromatography (HPLC) purify grade methanol for 1.0 mM as work solution.
(§2) Fluorescence competitive binding assays were performed on Tecan Spark 10M (Tecan Group Ltd., Männedorf, Switzerland) with the F96 Black ELIAS Plate (Sangon) ([Khuhro et al., 2017]; [Liu et al., 2017]). The solutions were excited at 337 nm and emission spectra were recorded between 390 and 490 nm. First, to test the binding constants of 1-NPN to the SfurOBPs, a 2.0 µM solution of protein in 50 mM Tris-HCl (pH = 7.4) was titrated with 1 mM 1-NPN to achieve virous concentrations. Next, the competitive binding of each odorant was measured using the 1-NPN as fluorescent reporter and odorant as competitor. The concentrations of protein and 1-NPN were both 2.0 µM, the odorant added after protein and 1-NPN added into the well of ELIAS Plate for 2 min. The final concentrations of each competitor were 2, 4, 6, 8, 10, 12, 14, 16, 18 and 20 µM. After 2 min of odorant added, the fluorescence intensity was measured and recorded. The volume of mixed solution in each well was maintained at 250 µL. Each interaction was performed in triplicates.
(§3) GraphPad Prism 7.0 software (GraphPad Software, Inc., La Jolla, CA, USA) was used to calculated and generated the binding constants (K1−NPN) of 1-NPN to SfurOBPs and relative Scatchard plots ([Ban et al., 2003]; [Li et al., 2016]). Dissociation constant (Ki) of each odorant to SfurOBP was computed from the corresponding IC50 value (the half maximal inhibitory concentration), using the following equation: Ki=[IC50]/(1 + [1-NPN]/K1−NPN), where [1-NPN] is the free concentration of 1-NPN and K1−NPN is the dissociation constant of the complex protein/1-NPN.

SfurOBP11 = SfurOBP11 (Sogatella furcifera, UniProt V5T6E3)
Method: as §1, §2, §3

SfurOBP2 = SfurOBP2 (Sogatella furcifera, UniProt V5T759)
Method: as §1, §2, §3

SfurOBP1 = SfurOBP1 (Sogatella furcifera, UniProt V5T8N5); conditions: OBP1, three replicate columns
Method: as §1, §2, §3

SfurOBP1, sequence (V5T8N5 entry or part of it): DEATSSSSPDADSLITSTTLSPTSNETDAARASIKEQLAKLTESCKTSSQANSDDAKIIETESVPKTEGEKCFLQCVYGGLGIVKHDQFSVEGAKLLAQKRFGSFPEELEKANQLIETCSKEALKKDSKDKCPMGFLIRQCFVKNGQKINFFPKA
SfurOBP2, sequence (V5T759 entry or part of it): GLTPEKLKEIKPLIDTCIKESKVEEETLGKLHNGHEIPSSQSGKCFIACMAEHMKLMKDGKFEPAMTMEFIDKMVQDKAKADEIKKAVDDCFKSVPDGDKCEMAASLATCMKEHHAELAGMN
SfurOBP11, sequence (V5T6E3 entry or part of it): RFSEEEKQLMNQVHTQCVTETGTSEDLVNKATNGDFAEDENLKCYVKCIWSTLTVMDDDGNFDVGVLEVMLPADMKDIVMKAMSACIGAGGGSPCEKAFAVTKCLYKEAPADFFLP
SfurOBP3, sequence (V5T818 entry or part of it): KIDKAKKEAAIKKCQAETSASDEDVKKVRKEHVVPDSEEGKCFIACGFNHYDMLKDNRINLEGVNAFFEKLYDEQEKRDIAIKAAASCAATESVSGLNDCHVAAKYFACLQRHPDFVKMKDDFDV

Q: With Cc1cc(C(C)(C)C)c(O)c(C(C)(C)C)c1 [BHT(2,6-di-tert-butyl-4-methylphenol)] as the molecule, how does the “Fluorescence competitive binding assay, fluorescence intensity” value (SfurOBP3; ligand concentration 2) read?
A: 62922 and 62019 and 61313

Q: What about the “Fluorescence competitive binding assay, fluorescence intensity” value (SfurOBP3; ligand concentration 4) of the same molecule?
A: 80496 and 109930 and 48944

Q: What about the “Fluorescence competitive binding assay, fluorescence intensity” value (SfurOBP3; ligand concentration 6) of the same molecule?
A: 58503 and 58107 and 50633

Q: And the “Fluorescence competitive binding assay, fluorescence intensity” value (SfurOBP3; ligand concentration 8)?
A: 41822 and 72799 and 53759

Q: What about the “Fluorescence competitive binding assay, fluorescence intensity” value (SfurOBP3; ligand concentration 10) of the same molecule?
A: 69788 and 72654 and 85946

Q: What about the “Fluorescence competitive binding assay, fluorescence intensity” value (SfurOBP3; ligand concentration 12) of the same molecule?
A: 60000 and 90914 and 74114

Q: And the “Fluorescence competitive binding assay, fluorescence intensity” value (SfurOBP3; ligand concentration 14)?
A: 74285 and 75475 and 71382

Q: And the “Fluorescence competitive binding assay, fluorescence intensity” value (SfurOBP3; ligand concentration 16)?
A: 52587 and 87313 and 65294

Q: What about the “Fluorescence competitive binding assay, fluorescence intensity” value (SfurOBP3; ligand concentration 18) of the same molecule?
A: 52719 and 70169 and 103842

Q: And the “Fluorescence competitive binding assay, fluorescence intensity” value (SfurOBP3; ligand concentration 20)?
A: 122349 and 93664 and 80933

Q: What about the “Fluorescence intensity, fluorescence competitive binding assay, OBP11” value (from here on “Fluorescence intensity … OBP11”) (SfurOBP11; ligand concentration 2, replicate 1) of the same molecule?
A: 23825

Q: What about the “Fluorescence intensity … OBP11” value (SfurOBP11; ligand concentration 2, replicate 2) of the same molecule?
A: 22642

Q: What about the “Fluorescence intensity … OBP11” value (SfurOBP11; ligand concentration 2, replicate 3) of the same molecule?
A: 21527

Q: And the “Fluorescence intensity … OBP11” value (SfurOBP11; ligand concentration 4, replicate 1)?
A: 20143

Q: And the “Fluorescence intensity … OBP11” value (SfurOBP11; ligand concentration 4, replicate 2)?
A: 21258

Q: And the “Fluorescence intensity … OBP11” value (SfurOBP11; ligand concentration 4, replicate 3)?
A: 22100

Q: What about the “Fluorescence intensity … OBP11” value (SfurOBP11; ligand concentration 6, replicate 1) of the same molecule?
A: 20464

Q: And the “Fluorescence intensity … OBP11” value (SfurOBP11; ligand concentration 6, replicate 2)?
A: 20607

Q: And the “Fluorescence intensity … OBP11” value (SfurOBP11; ligand concentration 6, replicate 3)?
A: 21862

Q: What about the “Fluorescence intensity … OBP11” value (SfurOBP11; ligand concentration 8, replicate 1) of the same molecule?
A: 19852

Q: What about the “Fluorescence intensity … OBP11” value (SfurOBP11; ligand concentration 8, replicate 2) of the same molecule?
A: 19956

Q: What about the “Fluorescence intensity … OBP11” value (SfurOBP11; ligand concentration 8, replicate 3) of the same molecule?
A: 20060

Q: And the “Fluorescence intensity … OBP11” value (SfurOBP11; ligand concentration 10, replicate 1)?
A: 19539

Q: And the “Fluorescence intensity … OBP11” value (SfurOBP11; ligand concentration 10, replicate 2)?
A: 18542

Q: And the “Fluorescence intensity … OBP11” value (SfurOBP11; ligand concentration 10, replicate 3)?
A: 20536

Q: And the “Fluorescence intensity … OBP11” value (SfurOBP11; ligand concentration 12, replicate 1)?
A: 18948

Q: And the “Fluorescence intensity … OBP11” value (SfurOBP11; ligand concentration 12, replicate 2)?
A: 19227

Q: What about the “Fluorescence intensity … OBP11” value (SfurOBP11; ligand concentration 12, replicate 3) of the same molecule?
A: 18669

Q: What about the “Fluorescence intensity … OBP11” value (SfurOBP11; ligand concentration 14, replicate 1) of the same molecule?
A: 16147

Q: And the “Fluorescence intensity … OBP11” value (SfurOBP11; ligand concentration 14, replicate 2)?
A: 16112

Q: What about the “Fluorescence intensity … OBP11” value (SfurOBP11; ligand concentration 14, replicate 3) of the same molecule?
A: 15881

Q: What about the “Fluorescence intensity … OBP11” value (SfurOBP11; ligand concentration 16, replicate 1) of the same molecule?
A: 16019

Q: What about the “Fluorescence intensity … OBP11” value (SfurOBP11; ligand concentration 16, replicate 2) of the same molecule?
A: 15985

Q: What about the “Fluorescence intensity … OBP11” value (SfurOBP11; ligand concentration 16, replicate 3) of the same molecule?
A: 16022

Q: And the “Fluorescence intensity … OBP11” value (SfurOBP11; ligand concentration 18, replicate 1)?
A: 16028

Q: And the “Fluorescence intensity … OBP11” value (SfurOBP11; ligand concentration 18, replicate 2)?
A: 15902

Q: And the “Fluorescence intensity … OBP11” value (SfurOBP11; ligand concentration 18, replicate 3)?
A: 15995

Q: And the “Fluorescence intensity … OBP11” value (SfurOBP11; ligand concentration 20, replicate 1)?
A: 15978

Q: What about the “Fluorescence intensity … OBP11” value (SfurOBP11; ligand concentration 20, replicate 2) of the same molecule?
A: 15860

Q: And the “Fluorescence intensity … OBP11” value (SfurOBP11; ligand concentration 20, replicate 3)?
A: 15984

Q: What about the “Fluorescence competitive binding assay, OBP2 (raw fluorescence reading)” value (SfurOBP2; ligand concentration 2 (unit not given), replicate column 1 of 3) of the same molecule?
A: 17266

Q: And the “Fluorescence competitive binding assay, OBP2 (raw fluorescence reading)” value (SfurOBP2; ligand concentration 2 (unit not given), replicate column 2 of 3)?
A: 17491

Q: And the “Fluorescence competitive binding assay, OBP2 (raw fluorescence reading)” value (SfurOBP2; ligand concentration 2 (unit not given), replicate column 3 of 3)?
A: 17183

Q: And the “Fluorescence competitive binding assay, OBP2 (raw fluorescence reading)” value (SfurOBP2; ligand concentration 4 (unit not given), replicate column 1 of 3)?
A: 14970

Q: And the “Fluorescence competitive binding assay, OBP2 (raw fluorescence reading)” value (SfurOBP2; ligand concentration 4 (unit not given), replicate column 2 of 3)?
A: 16711

Q: What about the “Fluorescence competitive binding assay, OBP2 (raw fluorescence reading)” value (SfurOBP2; ligand concentration 4 (unit not given), replicate column 3 of 3) of the same molecule?
A: 16317

Q: What about the “Fluorescence competitive binding assay, OBP2 (raw fluorescence reading)” value (SfurOBP2; ligand concentration 6 (unit not given), replicate column 1 of 3) of the same molecule?
A: 15662

Q: And the “Fluorescence competitive binding assay, OBP2 (raw fluorescence reading)” value (SfurOBP2; ligand concentration 6 (unit not given), replicate column 2 of 3)?
A: 16983

Q: What about the “Fluorescence competitive binding assay, OBP2 (raw fluorescence reading)” value (SfurOBP2; ligand concentration 6 (unit not given), replicate column 3 of 3) of the same molecule?
A: 15070

Q: What about the “Fluorescence competitive binding assay, OBP2 (raw fluorescence reading)” value (SfurOBP2; ligand concentration 8 (unit not given), replicate column 1 of 3) of the same molecule?
A: 15947

Q: What about the “Fluorescence competitive binding assay, OBP2 (raw fluorescence reading)” value (SfurOBP2; ligand concentration 8 (unit not given), replicate column 2 of 3) of the same molecule?
A: 15853

Q: What about the “Fluorescence competitive binding assay, OBP2 (raw fluorescence reading)” value (SfurOBP2; ligand concentration 8 (unit not given), replicate column 3 of 3) of the same molecule?
A: 15572

Q: And the “Fluorescence competitive binding assay, OBP2 (raw fluorescence reading)” value (SfurOBP2; ligand concentration 10 (unit not given), replicate column 1 of 3)?
A: 14398

Q: And the “Fluorescence competitive binding assay, OBP2 (raw fluorescence reading)” value (SfurOBP2; ligand concentration 10 (unit not given), replicate column 2 of 3)?
A: 14630

Q: And the “Fluorescence competitive binding assay, OBP2 (raw fluorescence reading)” value (SfurOBP2; ligand concentration 10 (unit not given), replicate column 3 of 3)?
A: 15652

Q: And the “Fluorescence competitive binding assay, OBP2 (raw fluorescence reading)” value (SfurOBP2; ligand concentration 12 (unit not given), replicate column 1 of 3)?
A: 14856

Q: And the “Fluorescence competitive binding assay, OBP2 (raw fluorescence reading)” value (SfurOBP2; ligand concentration 12 (unit not given), replicate column 2 of 3)?
A: 14795

Q: What about the “Fluorescence competitive binding assay, OBP2 (raw fluorescence reading)” value (SfurOBP2; ligand concentration 12 (unit not given), replicate column 3 of 3) of the same molecule?
A: 14083

Q: And the “Fluorescence competitive binding assay, OBP2 (raw fluorescence reading)” value (SfurOBP2; ligand concentration 14 (unit not given), replicate column 1 of 3)?
A: 12632

Q: And the “Fluorescence competitive binding assay, OBP2 (raw fluorescence reading)” value (SfurOBP2; ligand concentration 14 (unit not given), replicate column 2 of 3)?
A: 13317

Q: What about the “Fluorescence competitive binding assay, OBP2 (raw fluorescence reading)” value (SfurOBP2; ligand concentration 14 (unit not given), replicate column 3 of 3) of the same molecule?
A: 14001

Q: What about the “Fluorescence competitive binding assay, OBP2 (raw fluorescence reading)” value (SfurOBP2; ligand concentration 16 (unit not given), replicate column 1 of 3) of the same molecule?
A: 12208

Q: What about the “Fluorescence competitive binding assay, OBP2 (raw fluorescence reading)” value (SfurOBP2; ligand concentration 16 (unit not given), replicate column 2 of 3) of the same molecule?
A: 12493

Q: What about the “Fluorescence competitive binding assay, OBP2 (raw fluorescence reading)” value (SfurOBP2; ligand concentration 16 (unit not given), replicate column 3 of 3) of the same molecule?
A: 12411

Q: And the “Fluorescence competitive binding assay, OBP2 (raw fluorescence reading)” value (SfurOBP2; ligand concentration 18 (unit not given), replicate column 1 of 3)?
A: 12799

Q: And the “Fluorescence competitive binding assay, OBP2 (raw fluorescence reading)” value (SfurOBP2; ligand concentration 18 (unit not given), replicate column 2 of 3)?
A: 12350

Q: And the “Fluorescence competitive binding assay, OBP2 (raw fluorescence reading)” value (SfurOBP2; ligand concentration 18 (unit not given), replicate column 3 of 3)?
A: 11202

Q: What about the “Fluorescence competitive binding assay, OBP2 (raw fluorescence reading)” value (SfurOBP2; ligand concentration 20 (unit not given), replicate column 1 of 3) of the same molecule?
A: 12923

Q: And the “Fluorescence competitive binding assay, OBP2 (raw fluorescence reading)” value (SfurOBP2; ligand concentration 20 (unit not given), replicate column 2 of 3)?
A: 12557

Q: And the “Fluorescence competitive binding assay, OBP2 (raw fluorescence reading)” value (SfurOBP2; ligand concentration 20 (unit not given), replicate column 3 of 3)?
A: 10378

Q: And the “Fluorescence competitive binding assay, fluorescence intensity” value (SfurOBP1; ligand concentration 2 (μM))?
A: 6030 and 6058 and 6096

Q: And the “Fluorescence competitive binding assay, fluorescence intensity” value (SfurOBP1; ligand concentration 4 (μM))?
A: 6092 and 6318 and 6150

Q: And the “Fluorescence competitive binding assay, fluorescence intensity” value (SfurOBP1; ligand concentration 6 (μM))?
A: 6520 and 6547 and 6496

Q: And the “Fluorescence competitive binding assay, fluorescence intensity” value (SfurOBP1; ligand concentration 8 (μM))?
A: 6548 and 6679 and 6600

Q: What about the “Fluorescence competitive binding assay, fluorescence intensity” value (SfurOBP1; ligand concentration 10 (μM)) of the same molecule?
A: 6739 and 6709 and 6666

Q: And the “Fluorescence competitive binding assay, fluorescence intensity” value (SfurOBP1; ligand concentration 12 (μM))?
A: 6775 and 6778 and 6802

Q: What about the “Fluorescence competitive binding assay, fluorescence intensity” value (SfurOBP1; ligand concentration 14 (μM)) of the same molecule?
A: 6847 and 6906 and 6978

Q: What about the “Fluorescence competitive binding assay, fluorescence intensity” value (SfurOBP1; ligand concentration 16 (μM)) of the same molecule?
A: 6943 and 7135 and 6900

Q: What about the “Fluorescence competitive binding assay, fluorescence intensity” value (SfurOBP1; ligand concentration 18 (μM)) of the same molecule?
A: 7439 and 7058 and 7176

Q: What about the “Fluorescence competitive binding assay, fluorescence intensity” value (SfurOBP1; ligand concentration 20 (μM)) of the same molecule?
A: 7203 and 7412 and 7729
